From patent publication US20230063059A1, “SUBSTANCE INTERACTING WITH C TERMINAL FRAGMENT OF THE STIM1 FRACTION LOCALIZED TO THE PLASMA MEMBRANE OF THE CELLS, FOR ITS USE IN THE TREATMENT OF CANCERS, AND IN SCREENING AND DIAGNOSTIC METHODS” (UNIVERSITÉ DE BRETAGNE OCCIDENTALE - UBO, priority 2019, published 2023)

Experiments:
Type in all cases: cell-based
Conditions in all cases: Gemcitabine alone, low dose 15 nM, 48 hours
[1] = test system: Panc-1-Wt pancreatic cancer cells; assay: Cell proliferation, Cell Titer kit proliferation assay
Description: (§1) For cell proliferation, cytotoxicity, and cell survival measurements, […] were seeded in 96 wells plates in 100 μL of DMEM medium. Cells were incubated for 48H hours at 37° C. with an anti-STIM1 antibody targeting the C terminal of STIM1 (CDN3H4, Santa Cruz; HPA011088 or HPA012123 clones, Sigma). Cell proliferation was evaluated using the Cell Titer kit proliferation assay (Promega). Cytotoxicity was evaluated using the Cell Tox green cytotoxicity assay (Promega) and cell survival measured using the CCK8 kit from Sigma. All these kits were used following manufacturer recommendations and using a plate reader
as §1, with “with 5 μg/ml of the” for “with an”, “Santa Cruz) alone, with 15 nM Gemcitabine alone” for “Santa Cruz; HPA011088”, “or with both 5 ug/ml of the anti-STIM1 clone CDN3H4 and 15 nM Gemcitabine. Relevant controls (isotype or/and DMSO treatments) were also realized.” for “or HPA012123 clones, Sigma).”

[2] = test system: Panc-1-Wt pancreatic cancer cells; assay: Cell survival, CCK8 kit
Description: as §1
as §1, with “with 5 μg/ml of the” for “with an”, “Santa Cruz) alone, with 15 nM Gemcitabine alone” for “Santa Cruz; HPA011088”, “or with both 5 ug/ml of the anti-STIM1 clone CDN3H4 and 15 nM Gemcitabine. Relevant controls (isotype or/and DMSO treatments) were also realized.” for “or HPA012123 clones, Sigma).”

[3] = test system: Panc-1-Wt pancreatic cancer cells; assay: Cytotoxicity, Cell Tox green cytotoxicity assay
Description: as §1
as §1, with “with 5 μg/ml of the” for “with an”, “Santa Cruz) alone, with 15 nM Gemcitabine alone” for “Santa Cruz; HPA011088”, “or with both 5 ug/ml of the anti-STIM1 clone CDN3H4 and 15 nM Gemcitabine. Relevant controls (isotype or/and DMSO treatments) were also realized.” for “or HPA012123 clones, Sigma).”

SMILES: Nc1ccn([C@@H]2O[C@H](CO)[C@@H](O)C2(F)F)c(=O)n1 [Gemcitabine]
- proliferation of pancreatic cancer cells [1]: slightly but significantly reduce
- survival of pancreatic cancer cells [2]: slightly but significantly reduce
- cell cytotoxicity [3]: without inducing cell cytotoxicity
